Results: patent US20230023463A1, “COMPOSITION FOR PROMOTING HAIR THICKENING, COMPOSITION FOR SUSTAINING GROWTH PHASE IN HAIR CYCLE AND COMPOSITION FOR PROMOTING VEGF PRODUCTION, COMPOSITION FOR PROMOTING TRANSITION FROM RESTING PHASE TO GROWTH PHASE IN HAIR CYCLE AND COMPOSITION FOR PROMOTING FGF7 PRODUCTION, AND COMPOSITION FOR …” (priority 2020, published 2023)

Assays:
Format in all cases: cell-based
human hair papilla cells [1] = assay: Proliferation of hair papilla cells, citrulline (Cell Counting kit-8); settings: 2 mM, cultured one day, P<0.01, FIG. 5
Experimental: In the same manner as in Experimental Example 1, human hair papilla cells were cultured for 4 days, and seeded on a collagen-coated 96 well plate at a cell density of 2.5×10^3 cells/0.1 mL/well. The cells were cultured for one day in a carbon dioxide incubator (5 volume % carbon dioxide, 37° C.), and used for the evaluation of the proliferation of hair papilla cells. For the evaluation of the proliferation of hair papilla cells, the same evaluation medium as used in Experimental Example 1 was used.
L-citrulline was dissolved in the evaluation medium to prepare a solution.
In the above-mentioned hair papilla cell culture medium on the collagen-coated plate, the medium was replaced with the evaluation medium, the above-mentioned solution of L-citrulline was added to a concentration of 2 mM, and the cells were cultured for one day at 37° C., 5 volume % carbon dioxide (n=7).
Then the Cell Counting kit-8 (DOJINDO LABORATORIES) was added to each well by 10 μL, the plate was placed in a carbon dioxide incubator (5 volume % carbon dioxide, 37° C.) for 2 hr, and the absorbance at 450 nm was measured using a microplate reader.
Similar culture and treatment were performed without adding the solution of L-citrulline and used as the control.
The measurement results were converted to relative values (%) with the absorbance in the control as 100, and shown as mean±standard error in FIG. 5.

[2] = system: VEGF production in hair papilla cells; assay: VEGF production in hair papilla cells (ELISA of culture supernatant); settings: human hair papilla cells, cultured 3 days, vs control
Experimental: Using a papilla cell growth medium (PCGM) (Toyobo Co., Ltd.), human hair papilla cells (Toyobo Co., Ltd.) were cultured for 4 days on a collagen-coated dish, and seeded on a collagen-coated 48 well plate at a cell density of 1.2×10^4 cells/0.3 mL/well. The cells were cultured for one day in a carbon dioxide incubator (5 volume % carbon dioxide, 37° C.), and used for the evaluation of the VEGF production amount.
For the evaluation of the VEGF production amount, 20 kinds of amino acids were mixed at the composition shown in Table 1, the components other than amino acids were composed as in Dulbecco's modified Eagle medium (DMEM), glucose was added at 1 g/L, and the resulting medium was used as an evaluation medium.
L-citrulline, L-tryptophan, and L-glutamine were respectively dissolved in the evaluation medium to prepare each solution.
In the above-described hair papilla cell culture medium on the collagen-coated plate, the medium was replaced with the evaluation medium, the above-described respective solutions of L-citrulline, L-tryptophan, and L-glutamine were added at a given concentration, and the cells were cultured for 3 days at 37° C., 5 volume % carbon dioxide (n=4 for L-citrulline, L-tryptophan, and L-glutamine at each addition concentration).
(§1) Then, the supernatant of the culture medium was collected, centrifuged at 1500 rpm, and the supernatant was collected and cryopreserved at −30° C.
Similar culture and treatment were performed without adding each solution of L-citrulline, L-tryptophan, and L-glutamine and used as the control.
The concentration of VEGF in the supernatant of the culture was measured by thawing the collected supernatant and using the VEGF Enzyme-Linked ImmunoSorbent Assay (ELISA) kit (Abcam Plc.).
The measurement results were converted to relative values (%) with the VEGF concentration in the control as 100, and shown as mean±standard error in FIGS. 1 to 3.

[3] = system: FGF7 production in hair papilla cells; assay: FGF7 production in hair papilla cells (ELISA of culture supernatant); settings: human hair papilla cells, cultured 3 days, vs control, P<0.05 or P<0.01, FIG. 4
Experimental: In the same manner as in Experimental Example 1, human hair papilla cells were cultured for 4 days, and seeded on a collagen-coated 48 well plate at a cell density of 1.2×10^4 cells/0.3 mL/well. The cells were cultured for one day in a carbon dioxide incubator (5 volume % carbon dioxide, 37° C.), and used for the evaluation of the FGF7 production amount. For the evaluation of the FGF7 production amount, the same evaluation medium as in Experimental Example 1 was used.
L-ornithine was dissolved in the evaluation medium to prepare a solution.
In the above-mentioned hair papilla cell culture medium on the collagen-coated plate, the medium was replaced with the evaluation medium, the above-mentioned solution of L-ornithine was added at a given concentration, and the cells were cultured for 3 days at 37° C., 5 volume % carbon dioxide (n=3 at each addition concentration).
Similar culture and treatment were performed without adding the solution of L-ornithine, and used as the control.
as §1
The concentration of FGF7 in the supernatant of the culture was measured by thawing the collected supernatant and using the FGF7 Enzyme-Linked ImmunoSorbent Assay (ELISA) kit (Abcam Plc.). […]

human hair papilla cells [4] = assay: Proliferation of hair papilla cells, ornithine (Cell Counting kit-8); settings: cultured one day, P<0.05 or P<0.01, FIG. 6
Experimental: In the same manner as in Experimental Example 1, human hair papilla cells were cultured for 4 days, and seeded on a collagen-coated 96 well plate at a cell density of 2.5×10^3 cells/0.1 mL/well. The cells were cultured for one day in a carbon dioxide incubator (5 volume % carbon dioxide, 37° C.), and used for the evaluation of the proliferation of hair papilla cells. For the evaluation of the proliferation of hair papilla cells, a medium having the same amino acid composition as the evaluation medium used in Experimental Example 1 and other components diluted at a ¼ concentration was used as the evaluation medium.
L-ornithine was dissolved in the above-mentioned evaluation medium to prepare a solution. […]
Then the Cell Counting kit-8 (DOJINDO LABORATORIES) was added to each well by 10 μL, the plate was placed in a carbon dioxide incubator (5 volume % carbon dioxide, 37° C.) for 2 hr, and the absorbance at 450 nm was measured using a microplate reader. […]
The measurement results were converted to relative values (%) with the absorbance in the control as 100, and shown as mean±standard error in FIG. 6.

NC(=O)NCCCC(N)C(=O)O [L-citrulline, 2-amino-5-(carbamoylamino)pentanoic acid]
number of hair papilla cells as compared with the control (human hair papilla cells [1]): significant increase
addition concentration at which a significant increase in the VEGF production was observed ([2]; P<0.01 or P<0.001, FIG. 1): not less than 4.56 μM

NC(=O)CCC(N)C(=O)O [L-glutamine, 2-amino-4-carbamoylbutanoic acid]
addition concentration at which a significant increase in the VEGF production was observed ([2]; P<0.01 or P<0.001, FIGS. 2, 3): not less than 0.44 mM

NCCCC(N)C(=O)O [L-ornithine, 2,5-diamino pentanoic acid]
addition concentration at which a significant increase in the FGF7 production amount was observed [3]: not less than 151 μM
number of hair papilla cells as compared with the control (human hair papilla cells [4]; 756 μM): significant increase
number of hair papilla cells as compared with the control (human hair papilla cells [4]; 3.7 mM): significant increase

N[C@@H](Cc1c[nH]c2ccccc12)C(=O)O [L-tryptophan, 2-amino-3-(indolyl)propionic acid]
addition concentration at which a significant increase in the VEGF production was observed ([2]; P<0.01 or P<0.001, FIGS. 2, 3): not less than 0.01 mM
